Assay results published in PubChem BioAssay AID330 (DTP/NCI, 2004).
Values joined by “and” are separate entries in the source; they are usually repeats but may differ in a detail not shown here. Equal entries are not always repeated. Inconclusive results and toxic doses are left out. How the source made its calls: active means survival T/C of 150% or more; inactive means T/C below 125% in these data.

Tested on: P388 leukemia ip, CD2F1 mice, survival T/C
Assay: NCI In Vivo Anticancer Drug Screen. Data for tumor model P388 Leukemia (intraperitoneal) in CD2F1 (CDF1) mice
Conditions: endpoint: median survival time, higher = longer survival
Procedure, shortened: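 Mice carrying the transplanted tumor received test compound or vehicle. Survival was recorded in each group, and the value is the treated-group measurement divided by that of the vehicle-treated control group.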

[1] = dose: 50.0 mg/kg/injection, schedule: Q01DX009 (ip), vehicle: suspension in saline
[2] = dose: 100.0 mg/kg/injection, schedule: Q01DX009 (ip), vehicle: suspension in saline

Measured: T/C

C[N+](C)(C)/C=C/c1ccc([N+](=O)[O-])o1
inactive: [1] 100 % of control | [2] 96 % of control

CCCCCCCCCNCC(O)c1cc2c(c3ccccc13)CCCC2 (stereo unspecified)
inactive: dose: 6.25 mg/kg/injection, schedule: Q01DX005 (ip), vehicle: Klucel (hydroxypropylcellulose) (HPC) 92 % of control | dose: 12.5 mg/kg/injection, schedule: Q01DX005 (ip), vehicle: Klucel (hydroxypropylcellulose) (HPC) 90 % of control | dose: 25.0 mg/kg/injection, schedule: Q01DX005 (ip), vehicle: Klucel (hydroxypropylcellulose) (HPC) 99 % of control

COc1ccc(C(CC(=O)O)C(N)C(=O)O)cc1 (stereo unspecified)
inactive: [1] 88 % of control | [2] 87 % of control | dose: 200.0 mg/kg/injection, schedule: Q01DX009 (ip), vehicle: suspension in saline 95 % of control

CCN(CC)P1(=O)C=C(C)C2C1C1C=C(C)C2P1(=O)N(CC)CC (stereo unspecified)
inactive: dose: 60.0 mg/kg/injection, schedule: Q01DX005 (ip), vehicle: saline 108 % of control | dose: 120.0 mg/kg/injection, schedule: Q01DX005 (ip), vehicle: saline 101 % of control | dose: 240.0 mg/kg/injection, schedule: Q01DX005 (ip), vehicle: saline 102 % of control

O=[N+]([O-])c1ccccc1S(=O)NCc1c(Cl)cccc1Cl (stereo unspecified)
inactive: dose: 60.0 mg/kg/injection, schedule: Q01DX005 (ip), vehicle: saline with Tween-80 100 % of control | dose: 120.0 mg/kg/injection, schedule: Q01DX005 (ip), vehicle: saline with Tween-80 90 % of control | dose: 240.0 mg/kg/injection, schedule: Q01DX005 (ip), vehicle: saline with Tween-80 100 % of control

Cc1nc2c(Br)cc(Br)cc2c(=O)n1CC(=O)NNC(N)=S
inactive: dose: 50.0 mg/kg/injection, schedule: Q01DX009 (ip), vehicle: Klucel (hydroxypropylcellulose) (HPC) 95 % of control | dose: 100.0 mg/kg/injection, schedule: Q01DX009 (ip), vehicle: Klucel (hydroxypropylcellulose) (HPC) 104 % of control | dose: 200.0 mg/kg/injection, schedule: Q01DX009 (ip), vehicle: Klucel (hydroxypropylcellulose) (HPC) 101 % of control

COC(=O)c1ccc(=O)c2nc3/c(=C/O)c(O)cc(=O)c3[nH]c12
inactive: dose: 0.15 mg/kg/injection, schedule: Q04DX003 (ip), vehicle: saline 95 % of control | dose: 0.3 mg/kg/injection, schedule: Q01DX009 (ip), vehicle: saline with Tween-80 90 % of control | dose: 0.3 mg/kg/injection, schedule: Q04DX003 (ip), vehicle: saline 100 % of control | dose: 0.6 mg/kg/injection, schedule: Q04DX003 (ip), vehicle: saline 109 % of control

c1cnc2c(c1)ccc1ncccc12
inactive: dose: 50.0 mg/kg/injection, schedule: Q01DX005 (ip), vehicle: Klucel (hydroxypropylcellulose) (HPC) 104 % of control | dose: 100.0 mg/kg/injection, schedule: Q01DX005 (ip), vehicle: Klucel (hydroxypropylcellulose) (HPC) 95 % of control | dose: 200.0 mg/kg/injection, schedule: Q01DX005 (ip), vehicle: Klucel (hydroxypropylcellulose) (HPC) 97 % of control

CCOC(=O)C(CCCCn1cnc2ncnc(Cl)c21)(NC(C)=O)C(=O)OCC
inactive: dose: 100.0 mg/kg/injection, schedule: Q01DX001 (ip), vehicle: Klucel (hydroxypropylcellulose) (HPC) 105 % of control | dose: 200.0 mg/kg/injection, schedule: Q01DX001 (ip), vehicle: Klucel (hydroxypropylcellulose) (HPC) 107 % of control | dose: 400.0 mg/kg/injection, schedule: Q01DX001 (ip), vehicle: Klucel (hydroxypropylcellulose) (HPC) 102 % of control

COC(=O)C(CSC(c1ccccc1)(c1ccccc1)c1ccccc1)NC(=O)CCNC(=O)OCc1ccccc1 (stereo unspecified)
inactive: dose: 6.25 mg/kg/injection, schedule: Q01DX009 (ip), vehicle: other 103 % of control | dose: 12.5 mg/kg/injection, schedule: Q01DX009 (ip), vehicle: other 97 % of control | dose: 25.0 mg/kg/injection, schedule: Q01DX009 (ip), vehicle: other 94 % of control | dose: 50.0 mg/kg/injection, schedule: Q01DX009 (ip), vehicle: other 88 % of control

O=C(O)/C(=C\c1ccccn1)c1ccccc1
inactive: dose: 100.0 mg/kg/injection, schedule: Q04DX002 (ip), vehicle: saline with Tween-80 105 % of control | dose: 200.0 mg/kg/injection, schedule: Q04DX002 (ip), vehicle: saline with Tween-80 105 % of control | dose: 400.0 mg/kg/injection, schedule: Q04DX002 (ip), vehicle: saline with Tween-80 105 % of control

O=C1C(Cl)=C(NCCCN(CCCNC2=C(Cl)C(=O)c3ccccc3C2=O)C2=C(Cl)C(=O)c3ccccc3C2=O)C(=O)c2ccccc21
inactive: dose: 50.0 mg/kg/injection, schedule: Q01DX009 (ip), vehicle: saline 108 % of control and 118 % of control | dose: 100.0 mg/kg/injection, schedule: Q01DX009 (ip), vehicle: saline 109 % of control and 115 % of control | dose: 200.0 mg/kg/injection, schedule: Q01DX009 (ip), vehicle: saline 105 % of control and 108 % of control

COCC/C(COC)=N\N=C(/CCOC)COC
inactive: dose: 100.0 mg/kg/injection, schedule: Q01DX009 (ip), vehicle: saline with Tween-80 109 % of control | dose: 100.0 mg/kg/injection, schedule: Q04DX003 (ip), vehicle: saline sonified 104 % of control | dose: 200.0 mg/kg/injection, schedule: Q04DX003 (ip), vehicle: saline sonified 100 % of control | dose: 400.0 mg/kg/injection, schedule: Q04DX003 (ip), vehicle: saline sonified 104 % of control
